Assay: solvent given as SMILES

Structure (SMILES): CCCOc1ccc(/C=C/C=C/C=C/c2ccc([N+](=O)[O-])cc2)cc1
- emission maximum (in CC1CCCCC1): 488 nm
- emission maximum (in CC#N): 747 nm
- emission maximum (in Cc1ccccc1): 546 nm
- emission maximum (in ClCCl): 699 nm

Structure (SMILES): COc1ccc(-c2cc3c(o2)=CC2=Cc4cc5oc(-c6ccc(OC)cc6)cc5n4[B-](F)(F)[N+]=32)cc1
- emission maximum (in ClC(Cl)Cl): 683 nm

Structure (SMILES): C=CCNS(=O)(=O)c1ccc2c(c1)C(=O)/C(=C1\Sc3ccc(S(=O)(=O)NCC=C)cc3C1=O)S2
- emission maximum (in CN(C)C=O): 604 nm
- emission maximum (in CS(C)=O): 625 nm

Structure (SMILES): O=c1oc2ccccc2c(O)c1C(CC(O)c1ccc(-c2ccc(Br)cc2)cc1)c1ccccc1 (stereo not given)
- emission maximum (in CC#N): 403 nm
- emission maximum (in CCO): 392 nm
- emission maximum (in CO): 394 nm
- emission maximum (in O): 397 nm

Structure (SMILES): N#Cc1c(C#N)c2cc(Cl)ccc2c2ccc(Cl)cc12
- emission maximum (in ClC(Cl)Cl): 388 nm

Structure (SMILES): CCC1(CC)c2ccccc2-c2c1c1c(c3c2C(CC)(CC)c2cc(B(c4c(C)cc(C)cc4C)c4c(C)cc(C)cc4C)ccc2-3)C(CC)(CC)c2ccccc2-1
- emission maximum (in C1CCOC1): 385 nm
- emission maximum (in CC#N): 404 nm
- emission maximum (in CC(C)=O): 395 nm
- emission maximum (in CCCCCC): 372 nm
- emission maximum (in ClC(Cl)Cl): 387 nm

Structure (SMILES): O=Cc1ccc(C#CC(C#Cc2ccc(C=O)o2)=Cc2ccc(C=C(C#Cc3ccc(C=O)o3)C#Cc3ccc(C=O)o3)cc2)o1
- emission maximum (in ClC(Cl)Cl): 518 nm

Structure (SMILES): CC1(C)c2cc(/C=C/c3nc(/C=C/c4ccc5c(c4)C(C)(C)c4cc(N(c6ccccc6)c6ccc7ccccc7c6)ccc4-5)nc(/C=C/c4ccc5c(c4)C(C)(C)c4cc(N(c6ccccc6)c6ccc7ccccc7c6)ccc4-5)n3)ccc2-c2ccc(N(c3ccccc3)c3ccc4ccccc4c3)cc21
- emission maximum (in C1CCOC1): 440 nm

Structure (SMILES): Cc1ccc(N(c2ccc(C)cc2)c2ccc(-c3ccc(-c4ccc(N(c5ccc(C)cc5)c5ccc(C)cc5)cc4)c4nsnc34)cc2)cc1
- emission maximum (in Cc1ccccc1): 628 nm
- emission maximum (in ClCCl): 609 nm

Structure (SMILES): CCN1C(=O)C(C2C(=O)c3c4ccccc4cc4cc5ccccc5c2c34)C(=O)N(CC)C1=S (stereo not given)
- emission maximum (in C1CCOC1): 571 nm
- emission maximum (in CCCCCC): 544 nm
- emission maximum (in Cc1ccccc1): 564 nm
- emission maximum (in ClCCl): 582 nm

Structure (SMILES): O=Cc1cc(C=O)c2ccc3c(N4CCCCC4)cc(N4CCCCC4)c4ccc1c2c43
- emission maximum (in C1COCCO1): 585 nm
- emission maximum (in CC#N): 602 nm
- emission maximum (in CC(C)=O): 598 nm
- emission maximum (in CCCCCC): 557 nm
- emission maximum (in CCO): 609 nm
- emission maximum (in CCOC(C)=O): 587 nm
- emission maximum (in CO): 613 nm
- emission maximum (in CS(C)=O): 609 nm
- emission maximum (in Cc1ccccc1): 582 nm
- emission maximum (in ClCCl): 602 nm

Structure (SMILES): CC1=C(c2cccs2)C(C)=[N+]2C1=C(c1ccc(OS(=O)(=O)c3ccc([N+](=O)[O-])cc3[N+](=O)[O-])cc1)c1c(C)c(-c3cccs3)c(C)n1[B-]2(F)F
- emission maximum (in CO): 609 nm
- emission maximum (in Cc1ccccc1): 608 nm
- emission maximum (in ClCCl): 607 nm

Structure (SMILES): C=CCOC(=O)C(C#N)=C1C=C(/C=C/c2ccc(N(C)C)cc2)OC(/C=C/c2ccc(N(C)C)cc2)=C1
- emission maximum (in C1CCOC1): 595 nm
- emission maximum (in C1COCCO1): 564 nm
- emission maximum (in CC#N): 624 nm
- emission maximum (in CN(C)C=O): 616 nm
- emission maximum (in Cc1ccccc1): 556 nm
- emission maximum (in ClC(Cl)Cl): 585 nm
- emission maximum (in ClCCCl): 614 nm
- emission maximum (in ClCCl): 601 nm

Structure (SMILES): CC(C)(C)c1ccc2c(c1)c1cc(C(C)(C)C)ccc1n2-c1ccc(C#Cc2ccc3c4ccc(C#Cc5ccc(C=C(C#N)C#N)cc5)cc4n(-c4ccc(C(F)(F)F)cc4)c3c2)cc1
- emission maximum (in ClCCl): 454 nm

Structure (SMILES): CC[n+]1c(C=C2C(=O)C(C=C3N(C)c4ccccc4C3(C)C)=C2[O-])[se]c2ccccc21
- emission maximum (in CO): 661 nm
- emission maximum (in ClC(Cl)Cl): 675 nm

Structure (SMILES): C=Cc1ccc(-c2ccc(-c3nnc(-c4ccc(-c5nnc(-c6ccc(-c7ccc(C=C)cc7)s6)o5)cc4)o3)s2)cc1
- emission maximum (in C1COCCO1): 397 nm
- emission maximum (in CC#N): 400 nm
- emission maximum (in CC(=O)N(C)C): 407 nm
- emission maximum (in CCCCCCCCCCO): 399 nm
- emission maximum (in CCCCCCCCO): 400 nm
- emission maximum (in CCCCCCO): 399 nm
- emission maximum (in CCCCO): 400 nm
- emission maximum (in CCO): 400 nm
- emission maximum (in CS(C)=O): 423 nm
- emission maximum (in Cc1ccccc1): 399 nm
- emission maximum (in ClC(Cl)Cl): 398 nm
